biological target: T1, N-terminally GST-tagged human full length recombinant Mps-1 kinase (Homo sapiens, UniProt P33981); experiment: Mps-1 kinase assay (TR-FRET); assay type: biochemical; details: Mps1 IC50 [nM], 10 μM ATP, 1 μM peptide substrate, 60 min at 22° C.
T1 construct: N-terminally GST-tagged human full length recombinant Mps-1 kinase; purchased Invitrogen, Karslruhe, Germany PV4071
T1 sequence (P33981 1-857): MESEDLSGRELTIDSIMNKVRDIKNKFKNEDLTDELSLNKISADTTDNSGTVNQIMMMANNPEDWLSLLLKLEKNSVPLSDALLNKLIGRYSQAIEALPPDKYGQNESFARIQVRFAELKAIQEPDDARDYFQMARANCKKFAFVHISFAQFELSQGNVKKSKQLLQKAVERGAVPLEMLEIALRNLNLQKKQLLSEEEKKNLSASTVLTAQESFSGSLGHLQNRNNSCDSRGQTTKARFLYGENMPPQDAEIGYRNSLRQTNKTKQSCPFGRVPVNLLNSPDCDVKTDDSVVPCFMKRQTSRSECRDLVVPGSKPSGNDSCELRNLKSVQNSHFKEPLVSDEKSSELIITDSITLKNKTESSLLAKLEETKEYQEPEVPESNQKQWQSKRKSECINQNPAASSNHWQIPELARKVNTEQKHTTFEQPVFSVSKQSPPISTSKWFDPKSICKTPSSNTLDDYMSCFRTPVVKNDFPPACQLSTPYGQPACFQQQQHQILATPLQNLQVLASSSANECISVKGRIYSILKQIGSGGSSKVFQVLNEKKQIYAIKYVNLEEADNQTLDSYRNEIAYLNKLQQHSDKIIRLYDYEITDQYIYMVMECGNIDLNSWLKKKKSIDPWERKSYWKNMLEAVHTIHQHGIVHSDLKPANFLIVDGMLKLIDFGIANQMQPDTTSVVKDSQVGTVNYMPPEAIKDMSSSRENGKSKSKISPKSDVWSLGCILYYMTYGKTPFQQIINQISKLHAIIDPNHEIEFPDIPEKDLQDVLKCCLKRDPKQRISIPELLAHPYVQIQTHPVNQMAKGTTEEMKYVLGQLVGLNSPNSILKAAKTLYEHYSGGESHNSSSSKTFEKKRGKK
In short: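 Kinase activity of N-terminally GST-tagged full-length recombinant Mps-1, used at about 1 nM final and set within the linear range, was measured on a biotinylated peptide substrate. Phosphopeptide was detected by TR-FRET from Eu-anti-phospho(Ser/Thr) antibody to streptavidin-XLent after 1 h at 22° C.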

`CNC(=O)N(C)CCCNc1cc(Oc2cccc(F)c2)nn2c(-c3ccc(C(=O)NC4CC4)c(C)c3)cnc12` [Example 503, N-cyclopropyl-4-[6-(3-fluoro-phenoxy)-8-({3-[methyl(methyl-carbamoyl)amino]propyl}amino)imidazo[1,2-b]pyridazin-3-yl]-2-methylbenzamide] and `Cc1cc(-c2cnc3c(NCCCS(C)(=O)=O)cc(Oc4cccc(F)c4)nn23)ccc1C(=O)NC1CC1` [Example 508, N-cyclopropyl-4-[6-(3-fluoro-phenoxy)-8-{[3-(methylsulfonyl)propyl]amino}imidazo[1,2-b]pyridazin-3-yl]-2-methyl-benzamide] are the same in IC50: 0.2 nM for the first, 0.2 nM for the second.

First: Cc1cc(-c2cnc3c(NCCC(F)(F)F)cc(Sc4cc(F)ccc4F)nn23)ccc1C(=O)NC1CC1 [Example 255, N-cyclopropyl-4-{6-[(2,5-difluorophenyl)sulfanyl]-8-[(3,3,3-trifluoropropyl)amino]imidazo[1,2-b]pyridazin-3-yl}-2-methylbenzamide]
Second: Cc1cc(F)cc(Sc2cc(NCCCC(F)(F)F)c3ncc(-c4ccc(C(=O)NC5CC5)c(C)c4)n3n2)c1 [Example 449, N-cyclopropyl-4-{6-[(3-fluoro-5-methylphenyl)sulfanyl]-8-[(4,4,4-trifluorobutyl)amino]imidazo[1,2-b]pyridazin-3-yl}-2-methylbenzamide]
The IC50 of the first is 3-fold lower: 0.2 nM for the first, 0.6 nM for the second.

Going from `CC(C)(O)CNc1cc(-c2ccncc2)nn2c(-c3ccc(C(=S)NC4CC4)cc3)cnc12` [Example 47, N-cyclopropyl-4-{8-[(2-hydroxy-2-methylpropyl)amino]-6-(pyridin-4-yl)imidazo[1,2-b]pyridazin-3-yl}benzenecarbothioamide] to `CC(C)(O)CNc1cc(Sc2cccc(F)c2)nn2c(-c3ccc(C(=S)NC4CC4)cc3)cnc12` [Example 246, N-cyclopropyl-4-{6-[(3-fluorophenyl)sulfanyl]-8-[(2-hydroxy-2-methylpropyl)amino]imidazo[1,2-b]pyridazin-3-yl}benzenecarbothioamide], the IC50 falls from 2 nM to 0.6 nM (3.3-fold). The second is the more potent here.

First: Cc1cc(-c2cnc3c(NCC(C)(C)O)cc(C4=CCOCC4)nn23)ccc1C(=O)NC1CC1 [Example 166, N-cyclopropyl-4-{6-(3,6-dihydro-2H-pyran-4-yl)-8-[(2-hydroxy-2-methylpropyl)amino]imidazo[1,2-b]pyridazin-3-yl}-2-methylbenzamide]
Second: Cc1cc(-c2cnc3c(NCC(C)(C)O)cc(S(C)(=O)=O)nn23)ccc1C(=O)NC1CC1 [Example 18, N-cyclopropyl-4-{8-[(2-hydroxy-2-methylpropyl)amino]-6-(methylsulfonyl)imidazo[1,2-b]pyridazin-3-yl}-2-methylbenzamide]
The IC50 of the first is 43-fold lower: 5.3 nM for the first, 228 nM for the second.

`CC(C)CNc1cc(-c2cccc(F)c2)nn2c(-c3ccc(C(=O)NC4CC4)cc3)cnc12` [Example 128, N-cyclopropyl-4-{6-(3-fluorophenyl)-8-[(2-methylpropyl)amino]imidazo[1,2-b]pyridazin-3-yl}benzamide] and `CC(C)CNc1cc(-c2cccc(O)c2)nn2c(-c3ccc(C(=O)NC4CC4)cc3)cnc12` [Example 140, N-cyclopropyl-4-{6-(3-hydroxyphenyl)-8-[(2-methylpropyl)amino]imidazo[1,2-b]pyridazin-3-yl}benzamide] are within 1.5-fold of each other in IC50: 2.7 nM for the first, 3.9 nM for the second.

First: Cc1cc(-c2cnc3c(NCC4CCS(=O)(=O)CC4)cc(Oc4cccnc4)nn23)ccc1C(=O)NC1CC1 [Example 296A, N-cyclopropyl-4-[8-{[(1,1-dioxidotetrahydro-2H-thiopyran-4-yl)methyl]amino}-6-(pyridin-3-yloxy)imidazo[1,2-b]pyridazin-3-yl]-2-methylbenzamide]
Second: Cc1cc(-c2cnc3c(NCC4CC[S+]([O-])CC4)cc(Oc4ccc(Cl)cc4)nn23)ccc1C(=O)NC1CC1 (mixture of isomers) [Example 294B, 4-[6-(4-chlorophenoxy)-8-({[(cis/trans)-1-oxidotetrahydro-2H-thiopyran-4-yl]methyl}amino)imidazo[1,2-b]pyridazin-3-yl]-N-cyclopropyl-2-methylbenzamide]
The IC50 of the first is 2.5-fold higher: 0.5 nM for the first, 0.2 nM for the second.

Compared with `Cc1cc(-c2cnc3c(NCCC(F)(F)F)cc(Nc4cccc(F)c4F)nn23)ccc1C(=O)NC1CC1` [Example 380, N-cyclopropyl-4-{6-[(2,3-difluorophenyl)amino]-8-[(3,3,3-trifluoropropyl)amino]imidazo[1,2-b]pyridazin-3-yl}-2-methylbenzamide], `COc1cc(F)ccc1Nc1cc(NCCCC(F)(F)F)c2ncc(-c3ccc(C(=O)NC4CC4)c(C)c3)n2n1` [Example 457, N-cyclopropyl-4-{6-[(4-fluoro-2-methoxyphenyl)amino]-8-[(4,4,4-trifluorobutyl)amino]imidazo[1,2-b]pyridazin-3-yl}-2-methylbenzamide] is 54-fold higher in IC50: 0.1 nM for the first, 5.4 nM for the second.

Compared with `COc1ccc(Oc2cc(NCCC(F)(F)F)c3ncc(-c4ccc(C(=O)NC5CC5)c(C)c4)n3n2)cc1F` [Example 475, N-cyclopropyl-4-{6-(3-fluoro-4-methoxy-phenoxy)-8-[(3,3,3-tri-fluoropropyl)amino]imidazo[1,2-b]pyridazin-3-yl}-2-methylbenzamide], `Cc1cc(F)cc(Oc2cc(NCCC(F)(F)F)c3ncc(-c4ccc(C(=O)NC5CC5)c(C)c4)n3n2)c1` [Example 88, N-cyclopropyl-4-{6-(3-fluoro-5-methylphenoxy)-8-[(3,3,3-trifluoropropyl)amino]imidazo[1,2-b]pyridazin-3-yl}-2-methylbenzamide] is 2-fold higher in IC50: 0.2 nM for the first, 0.4 nM for the second. The first is the more potent here.

`Cc1cc(-c2cnc3c(NCCC(F)(F)F)cc(Oc4cccc(Cl)c4)nn23)ccc1C(=O)NC1CC1` [Example 266, 4-{6-(3-chlorophenoxy)-8-[(3,3,3-trifluoropropyl)amino]imidazo[1,2-b]pyridazin-3-yl}-N-cyclopropyl-2-methylbenzamide] and `Cc1cc(-c2cnc3c(NCCC(F)(F)F)cc(S(=O)(=O)c4cccc(F)c4)nn23)ccc1C(=O)NC1CC1` [Example 83A, N-cyclopropyl-4-{6-[(3-fluorophenyl)sulfonyl]-8-[(3,3,3-trifluoropropyl)amino]imidazo[1,2-b]pyridazin-3-yl}-2-methylbenzamide] are within 1.5-fold of each other in IC50: 0.3 nM for the first, 0.2 nM for the second.

Going from `Cc1cc(-c2cnc3c(NCCC(F)(F)F)cc(O/C=C(/F)C(F)(F)CO)nn23)ccc1C(=O)NC1CC1` [Example 278B, N-cyclopropyl-2-methyl-4-(6-{[(1E)-2,3,3-trifluoro-4-hydroxybut-1-en-1-yl]oxy}-8-[(3,3,3-trifluoropropyl)amino]imidazo[1,2-b]pyridazin-3-yl)benzamide] to `CSc1cc(NCC(O)C(F)(F)F)c2ncc(-c3ccc(C(=O)NC4CC4)c(C)c3)n2n1` (racemic) [Example 206, (RS)N-cyclopropyl-2-methyl-4-{6-(methylsulfanyl)-8-[(3,3,3-trifluoro-2-hydroxypropyl)amino]imidazo[1,2-b]pyridazin-3-yl}benzamide], the IC50 rises from 1 nM to 6.2 nM (6.2-fold).

First: Cc1cc(-c2cnc3c(NCc4cc[nH]n4)cc(Oc4cccc(F)c4)nn23)ccc1C(=O)NC1CC1 [Example 489, N-cyclopropyl-4-{6-(3-fluoro-phenoxy)-8-[(1H-pyrazol-3-ylmethyl)amino]imidazo [1,2-b]pyridazin-3-yl}-2-methylbenzamide]
Second: Cc1ccc(F)cc1Oc1cc(NCC2CNC2)c2ncc(-c3ccc(C(=O)NC4CC4)c(C)c3)n2n1 [Example 545, 4-{8-[(azetidin-3-ylmethyl)amino]-6-(5-fluoro-2-methylphenoxy)imidazo[1,2-b]pyridazin-3-yl}-N-cyclopropyl-2-methylbenzamide]
The IC50 of the first is 2-fold higher: 0.2 nM for the first, 0.1 nM for the second.

Compared with `Cc1cc(-c2cnc3c(NCC(C)(C)O)cc(Oc4ccc(N5CCN(C(=O)OC(C)(C)C)CC5)cc4)nn23)ccc1C(=O)NC1CC1` [Example 322, tert-butyl 4-[4-({3-[4-(cyclopropyl-carbamoyl)-3-methyl-phenyl]-8-[(2-hydroxy-2-methylpropyl)amino]imidazo[1,2-b]pyridazin-6-yl}oxy)phenyl]piperazine-1-carboxylate], `Cc1cc(-c2cnc3c(NCC4CCOC4)cc(-c4ccccc4CO)nn23)ccc1C(=O)NC1CC1` (racemic) [Example 345, (RS)-N-cyclopropyl-4-{6-[2-(hydroxy-methyl)phenyl]-8-[(tetrahydro-furan-3-ylmethyl)amino]imidazo [1,2-b]pyridazin-3-yl}-2-methyl-benzamide] is 24-fold lower in IC50: 70.6 nM for the first, 3 nM for the second.

Work on `CC(C)CNc1cc(Cl)nn2c(-c3ccc(-c4cnc(C5CC5)[nH]4)cc3)cnc12` [Example 184, 6-Chloro-3-[4-(2-cyclopropyl-1H-imidazol-5-yl)phenyl]-N-(2-methylpropyl)imidazo[1,2-b]pyridazin-8-amine] yielded an IC50 of 101 nM.

Source: patent US9255100B2 (BAYER INTELLECTUAL PROPERTY GMBH, priority 2010, dated 2016)
